According to ChEMBL document CHEMBL1141339, “Studies on terpenoids produced by actinomycetes: oxaloterpins A, B, C, D, and E, diterpenes from Streptomyces sp. KO-3988” (2007):

Legend:
Bacillus subtilis = test: Antibacterial activity against Bacillus subtilis ATCC 43223; assay type: functional
Staphylococcus aureus = test: Antibacterial activity against Staphylococcus aureus ATCC 29213; assay type: functional

Q: Which results are given for `C=C[C@@]1(C)CC=C2[C@@H](CC[C@@H]3C(C)(C)[C@H](OC(=O)C(=O)N(O)C(C)=O)CC[C@@]23C)C1` [OXALOTERPIN A]?
A: IC (Bacillus subtilis): 1.9 nmol/mL; IC (Staphylococcus aureus): 3.7 nmol/mL
